# Test results from paper PMC5038983 (The Journal of neuroscience : the official journal of the …, 2011).
# Target: T1, PME-1 (PP2A-specific methylesterase) (Homo sapiens, UniProt Q9Y570)
# T1 sequence (Q9Y570 2-386): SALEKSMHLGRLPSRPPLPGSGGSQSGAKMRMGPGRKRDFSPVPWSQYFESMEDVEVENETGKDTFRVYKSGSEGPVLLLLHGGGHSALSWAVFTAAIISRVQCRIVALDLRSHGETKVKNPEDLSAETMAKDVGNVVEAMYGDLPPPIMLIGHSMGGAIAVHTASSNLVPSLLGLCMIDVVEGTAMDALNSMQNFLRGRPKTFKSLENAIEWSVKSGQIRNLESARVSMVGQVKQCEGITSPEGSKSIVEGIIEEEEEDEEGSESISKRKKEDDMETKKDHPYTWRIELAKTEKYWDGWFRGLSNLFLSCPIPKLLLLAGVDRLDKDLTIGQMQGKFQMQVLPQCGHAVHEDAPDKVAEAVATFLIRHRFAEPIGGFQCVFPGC
# Format: biochemical
smiles,measurement,value
"CCCCCCCCCCCCCCCCCCCC(=O)NCCc1c[nH]c2ccc(O)cc12 [EHT, eicosinoyl-5-hydroxytryptamide]",IC50,3.9 µM
